Results: ChEMBL document CHEMBL4354838, “Synthesis and in Vitro and in Vivo Biological Evaluation of Tissue-Specific Bisthiazole Histone Deacetylase (HDAC) Inhibitors” (J Med Chem, 2020)
Blank lines part the entries; values can stand above or below the molecule they belong to.

Key:
Histone deacetylase 1 = Histone deacetylase 1 (Homo sapiens, UniProt Q13547); test: biochemical; format: cell-based
Description: Inhibition of recombinant His6/GST-tagged human HDAC1 expressed in baculovirus infected High5 insect cells using Ac-Lys-Tyr-Lys(epsilon-acetyl)-AMC as substrate after 24 hrs by fluorescence based assay

[1] = mouse, in vivo, po, 50 mg/kg, 6 h
in vivo [2] = settings: ICR, mouse, other tissue
in vivo [3] = settings: ICR, mouse, other tissue; remark: listed apart in the source
[4] = cynomolgus monkey, hepatocytes, 3 h, 3 µM
[5] = mouse, in vivo
[6] = human, hepatocytes, 3 h, 3 µM
NCI-H1975 = test: cells; format: functional, cell-based; settings: Homo sapiens, NCI-H1975, 72 h
Description: Antiproliferative activity against human NCI-H1975 cells assessed as reduction in cell growth after 72 hrs

in vivo [7] = settings: ICR, mouse, po, 5 mg/kg
[8] = mouse, hepatocytes, 3 h, 3 µM
[9] = dog, hepatocytes, 3 h, 3 µM
HT-29 [10] = test: cells; format: functional, cell-based; settings: Homo sapiens, HT-29, 72 h
Description: Antiproliferative activity against human HT-29 cells assessed as reduction in cell growth after 72 hrs

[11] = dog, hepatocytes, 3 h, 3 µM; remark: listed apart in the source
Histone deacetylase 8 = Histone deacetylase 8 (Homo sapiens, UniProt Q9BY41); test: biochemical; format: cell-based
Description: Inhibition of recombinant human His6/GST-tagged HDAC8 expressed in baculovirus infected High5 insect cells using Ac-Lys-Tyr-Lys(epsilon-acetyl)-AMC as susbtrate after 24 hrs by fluorescence based assay

Histone deacetylase 11 = Histone deacetylase 11 (Homo sapiens, UniProt Q96DB2); test: biochemical; format: cell-based
Description: Inhibition of recombinant human His6/GST-tagged HDAC11 expressed in baculovirus infected High5 insect cells using Ac-Lys-Tyr-Lys(epsilon-acetyl)-AMC as susbtrate after 24 hrs by fluorescence based assay

in vivo [12] = settings: ICR, mouse, other tissue; remark: listed apart in the source
[13] = molecular target: NAD-dependent protein deacetylase sirtuin-3, mitochondrial (Homo sapiens, UniProt Q9NTG7)
Description: Inhibition of recombinant human N-terminal His-tagged SIRT3 expressed in Escherichia coli using Ac-Arg-His-Lys-Lys(Ac)-AMC as susbtrate after 2 hrs by fluorescence based assay

[14] = mouse, in vivo, po, 50 mg/kg, 1 h
[15] = mouse, in vivo; remark: listed apart in the source
[16] = mouse, in vivo, po, 50 mg/kg, 1 h; remark: listed apart in the source
in vivo [17] = settings: ICR, mouse, other tissue; remark: listed apart in the source
[18] = rat, hepatocytes, 3 h, 3 µM
in vivo [19] = settings: ICR, mouse, other tissue; remark: listed apart in the source
[20] = mouse, in vivo, po, 50 mg/kg, 1 h; remark: listed apart in the source
Histone deacetylase 2 = Histone deacetylase 2 (Homo sapiens, UniProt Q92769); test: biochemical; format: cell-based
Description: Inhibition of recombinant human His6/GST-tagged HDAC2 expressed in baculovirus infected High5 insect cells using Ac-Lys-Tyr-Lys(epsilon-acetyl)-AMC as susbtrate after 24 hrs by fluorescence based assay

in vivo [21] = settings: ICR, mouse, po, 5 mg/kg; remark: listed apart in the source
Description: Mean residence time in ICR mouse at 5 mg/kg, po after 1 hr to 24 hrs by LC-MS analysis

[22] = mouse, in vivo, po, 50 mg/kg, 1 h; remark: listed apart in the source
Bel-7402 = test: cells; format: functional, cell-based; settings: Homo sapiens, Bel-7402, 72 h
Description: Antiproliferative activity against human Bel7402 cells assessed as reduction in cell growth after 72 hrs

[23] = mouse, in vivo, po, 50 mg/kg, 1 h; remark: listed apart in the source
[24] = mouse, in vivo; remark: listed apart in the source
[25] = mouse, in vivo; remark: listed apart in the source
in vivo [26] = settings: ICR, mouse, iv, 2 mg/kg
[27] = mouse, in vivo, iv, 10 mg/kg
Histone deacetylase 7 = Histone deacetylase 7 (Homo sapiens, UniProt Q8WUI4); test: biochemical; format: cell-based, Sf9
MCF7 = test: cells; format: functional, cell-based; settings: Homo sapiens, MCF7, 72 h
Description: Antiproliferative activity against human MCF7 cells assessed as reduction in cell growth after 72 hrs

in vivo [28] = settings: ICR, mouse, iv, 2 mg/kg; remark: listed apart in the source
Histone deacetylase 4 = Histone deacetylase 4 (Homo sapiens, UniProt P56524); test: biochemical; format: cell-based
Description: Inhibition of recombinant human His6/GST-tagged HDAC4 expressed in baculovirus infected High5 insect cells using Ac-Leu-Gly-Lys(Tfa)-AMC as substrate after 24 hrs by fluorescence based assay

[29] = human, hepatocytes, 3 h, 3 µM; remark: listed apart in the source
[30] = mouse, in vivo, po, 50 mg/kg, 1 h; remark: listed apart in the source
[31] = mouse, in vivo, po, 50 mg/kg, 1 h; remark: listed apart in the source
[32] = cynomolgus monkey, hepatocytes, 3 h, 3 µM; remark: listed apart in the source
HT-29 [33] = format: functional, Homo sapiens; settings: at 50 mg/kg
Description: Antitumor activity against human HT-29 cells xenografted in nude mouse assessed as reduction in tumor growth at 50 mg/kg, po qd for 21 days relative to control

in vivo [34] = settings: ICR, mouse, other tissue; remark: listed apart in the source
in vivo [35] = settings: female, ICR, mouse, other tissue
[36] = mouse, in vivo; remark: listed apart in the source
[37] = mouse, in vivo; remark: listed apart in the source
[38] = mouse, in vivo; remark: listed apart in the source
Histone deacetylase 5 = Histone deacetylase 5 (Homo sapiens, UniProt Q9UQL6); test: biochemical; format: cell-based, Sf9
Description: Inhibition of recombinant N-terminal GST-tagged full length human HDAC5 expressed in baculovirus infected Sf9 cells using Ac-Leu-Gly-Lys(Tfa)-AMC as substrate after 24 hrs by fluorescence based assay

[39] = dog, hepatocytes, 3 h, 3 µM; remark: listed apart in the source
[40] = human, hepatocytes, 3 h, 3 µM; remark: listed apart in the source
[41] = mouse, hepatocytes, 3 h, 3 µM; remark: listed apart in the source
[42] = human, hepatocytes, 3 h, 3 µM; remark: listed apart in the source
NCI-N87 = test: cells; format: functional, cell-based; settings: Homo sapiens, NCI-N87, 72 h
Description: Antiproliferative activity against human NCI-N87 cells assessed as reduction in cell growth after 72 hrs

[43] = mouse, in vivo, po, 50 mg/kg, 1 h; remark: listed apart in the source
MDA-MB-231 = test: cells; format: functional, cell-based; settings: Homo sapiens, MDA-MB-231, 72 h
Description: Antiproliferative activity against human MDA-MB-231 cells assessed as reduction in cell growth after 72 hrs

[44] = mouse, in vivo; remark: listed apart in the source
[45] = molecular target: NAD-dependent protein deacetylase sirtuin-2 (Homo sapiens, UniProt Q8IXJ6)
Description: Inhibition of recombinant human N-terminal GST-tagged SIRT2 expressed in Escherichia coli using Ac-Arg-His-Lys-Lys(Ac)-AMC as susbtrate after 2 hrs by fluorescence based assay

[46] = mouse, hepatocytes, 3 h, 3 µM; remark: listed apart in the source
HT-29 [47] = format: functional, Homo sapiens; settings: at 25 mg/kg
Description: Antitumor activity against human HT-29 cells xenografted in nude mouse assessed as reduction in tumor growth at 25 mg/kg, po qd for 21 days relative to control

[48] = mouse, in vivo; remark: listed apart in the source
[49] = mouse, hepatocytes, 3 h, 3 µM; remark: listed apart in the source
[50] = mouse, in vivo, po, 50 mg/kg, 1 h; remark: listed apart in the source
[51] = molecular target: Polyamine deacetylase HDAC10 (Homo sapiens, UniProt Q969S8); test: biochemical; format: cell-based
Description: Inhibition of recombinant human His6/GST-tagged HDAC10 expressed in baculovirus infected High5 insect cells using Ac-Lys-Tyr-Lys(epsilon-acetyl)-AMC as susbtrate after 24 hrs by fluorescence based assay

in vivo [52] = settings: ICR, mouse, po, 5 mg/kg; remark: listed apart in the source
[53] = dog, hepatocytes, 3 h, 3 µM; remark: listed apart in the source
Histone deacetylase 9 = Histone deacetylase 9 (Homo sapiens, UniProt Q9UKV0); test: biochemical; format: cell-based, Sf9
in vivo [54] = settings: ICR, mouse, po, 5 mg/kg; remark: listed apart in the source
Description: Half life in ICR mouse at 5 mg/kg, po measured up to 24 hrs by LC-MS analysis

[55] = mouse, hepatocytes, 3 h, 3 µM; remark: listed apart in the source
in vivo [56] = settings: ICR, mouse, po, 5 mg/kg; remark: listed apart in the source
[57] = rat, hepatocytes, 3 h, 3 µM; remark: listed apart in the source
in vivo [58] = settings: ICR, mouse, iv, 2 mg/kg; remark: listed apart in the source
in vivo [59] = settings: ICR, mouse, brain
[60] = human, hepatocytes, 3 h, 3 µM; remark: listed apart in the source
[61] = rat, hepatocytes, 3 h, 3 µM; remark: listed apart in the source
[62] = rat, hepatocytes, 3 h, 3 µM; remark: listed apart in the source
[63] = mouse, in vivo, iv, 10 mg/kg; remark: listed apart in the source
[64] = mouse, in vivo, po, 50 mg/kg, 1 h; remark: listed apart in the source
in vivo [65] = settings: ICR, mouse, po, 5 mg/kg; remark: listed apart in the source
[66] = cynomolgus monkey, hepatocytes, 3 h, 3 µM; remark: listed apart in the source
in vivo [67] = settings: ICR, mouse, po, 5 mg/kg; remark: listed apart in the source
[68] = cynomolgus monkey, hepatocytes, 3 h, 3 µM; remark: listed apart in the source
[69] = cynomolgus monkey, hepatocytes, 3 h, 3 µM; remark: listed apart in the source
[70] = molecular target: NAD-dependent protein deacetylase sirtuin-1 (Homo sapiens, UniProt Q96EB6)
Description: Inhibition of recombinant human N-terminal GST-tagged SIRT1 expressed in Escherichia coli using Ac-Arg-His-Lys-Lys(Ac)-AMC as susbtrate after 1 hr by fluorescence based assay

HT-29 [71] = format: functional, Homo sapiens; settings: at 100 mg/kg
Description: Antitumor activity against human HT-29 cells xenografted in nude mouse assessed as reduction in tumor growth at 100 mg/kg, po qd for 21 days relative to control

[72] = human, hepatocytes, 3 h, 3 µM; remark: listed apart in the source
[73] = dog, hepatocytes, 3 h, 3 µM; remark: listed apart in the source
EBC-1 = test: cells; format: functional, cell-based; settings: Homo sapiens, EBC-1, 72 h
Description: Antiproliferative activity against human EBC1 cells assessed as reduction in cell growth after 72 hrs

[74] = mouse, in vivo, po, 50 mg/kg, 1 h; remark: listed apart in the source
[75] = mouse, hepatocytes, 3 h, 3 µM; remark: listed apart in the source
in vivo [76] = settings: male, ICR, mouse, other tissue
[77] = rat, hepatocytes, 3 h, 3 µM; remark: listed apart in the source
T47D = test: cells; format: functional, cell-based; settings: Homo sapiens, 72 h
Description: Antiproliferative activity against human T47D cells assessed as reduction in cell growth after 72 hrs

in vivo [78] = settings: ICR, mouse, iv, 2 mg/kg; remark: listed apart in the source
[79] = cynomolgus monkey, hepatocytes, 3 h, 3 µM; remark: listed apart in the source
[80] = mouse, in vivo; remark: listed apart in the source
in vivo [81] = settings: female, ICR, mouse, other tissue; remark: listed apart in the source
[82] = mouse, in vivo; remark: listed apart in the source
[83] = rat, hepatocytes, 3 h, 3 µM; remark: listed apart in the source
[84] = dog, hepatocytes, 3 h, 3 µM; remark: listed apart in the source

Histone deacetylase 1, sequence (Q13547 whole entry): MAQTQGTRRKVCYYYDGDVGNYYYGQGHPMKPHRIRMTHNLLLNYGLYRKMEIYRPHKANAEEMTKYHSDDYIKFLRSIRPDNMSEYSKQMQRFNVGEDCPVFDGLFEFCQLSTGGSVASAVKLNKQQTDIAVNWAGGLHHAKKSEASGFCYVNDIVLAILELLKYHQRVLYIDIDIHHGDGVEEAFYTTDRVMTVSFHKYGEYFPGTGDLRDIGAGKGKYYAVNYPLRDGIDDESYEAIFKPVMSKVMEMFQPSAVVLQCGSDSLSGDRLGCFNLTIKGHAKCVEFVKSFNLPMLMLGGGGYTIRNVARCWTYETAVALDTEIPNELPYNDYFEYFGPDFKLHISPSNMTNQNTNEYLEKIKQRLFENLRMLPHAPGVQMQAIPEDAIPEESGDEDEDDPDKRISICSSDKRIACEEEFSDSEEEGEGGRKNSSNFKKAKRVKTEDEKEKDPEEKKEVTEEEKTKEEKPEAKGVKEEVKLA
NAD-dependent protein deacetylase sirtuin-2, sequence (Q8IXJ6 whole entry): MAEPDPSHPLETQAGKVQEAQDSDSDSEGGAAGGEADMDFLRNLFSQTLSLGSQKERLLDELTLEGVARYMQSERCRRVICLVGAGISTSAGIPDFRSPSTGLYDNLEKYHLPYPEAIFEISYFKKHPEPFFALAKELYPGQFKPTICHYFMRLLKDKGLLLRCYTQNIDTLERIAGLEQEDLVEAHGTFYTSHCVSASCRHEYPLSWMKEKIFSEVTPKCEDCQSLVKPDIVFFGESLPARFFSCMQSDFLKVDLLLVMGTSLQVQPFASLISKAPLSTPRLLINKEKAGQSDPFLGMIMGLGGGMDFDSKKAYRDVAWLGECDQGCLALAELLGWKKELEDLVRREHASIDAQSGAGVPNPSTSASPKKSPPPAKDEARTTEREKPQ
NAD-dependent protein deacetylase sirtuin-1, sequence (Q96EB6 whole entry): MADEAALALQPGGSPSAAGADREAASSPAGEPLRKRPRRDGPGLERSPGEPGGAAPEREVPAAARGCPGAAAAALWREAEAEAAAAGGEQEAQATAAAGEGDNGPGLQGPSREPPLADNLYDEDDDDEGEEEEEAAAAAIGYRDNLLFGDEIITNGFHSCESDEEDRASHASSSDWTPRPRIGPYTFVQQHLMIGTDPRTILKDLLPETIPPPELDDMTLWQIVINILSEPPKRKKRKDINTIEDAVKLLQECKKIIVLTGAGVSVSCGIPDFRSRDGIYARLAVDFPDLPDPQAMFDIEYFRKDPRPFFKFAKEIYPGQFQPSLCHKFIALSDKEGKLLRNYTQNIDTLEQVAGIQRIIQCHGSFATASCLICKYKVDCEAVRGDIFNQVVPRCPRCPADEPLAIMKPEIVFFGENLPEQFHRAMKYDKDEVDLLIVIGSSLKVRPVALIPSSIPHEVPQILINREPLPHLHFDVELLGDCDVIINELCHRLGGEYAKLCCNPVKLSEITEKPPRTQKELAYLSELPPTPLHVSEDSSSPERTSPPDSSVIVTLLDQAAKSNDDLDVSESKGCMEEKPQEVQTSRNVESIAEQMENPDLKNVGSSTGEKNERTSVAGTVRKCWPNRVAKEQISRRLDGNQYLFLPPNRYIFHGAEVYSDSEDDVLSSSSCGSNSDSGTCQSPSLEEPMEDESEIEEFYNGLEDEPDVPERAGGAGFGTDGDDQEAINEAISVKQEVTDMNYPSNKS
NAD-dependent protein deacetylase sirtuin-3, mitochondrial, sequence (Q9NTG7 whole entry): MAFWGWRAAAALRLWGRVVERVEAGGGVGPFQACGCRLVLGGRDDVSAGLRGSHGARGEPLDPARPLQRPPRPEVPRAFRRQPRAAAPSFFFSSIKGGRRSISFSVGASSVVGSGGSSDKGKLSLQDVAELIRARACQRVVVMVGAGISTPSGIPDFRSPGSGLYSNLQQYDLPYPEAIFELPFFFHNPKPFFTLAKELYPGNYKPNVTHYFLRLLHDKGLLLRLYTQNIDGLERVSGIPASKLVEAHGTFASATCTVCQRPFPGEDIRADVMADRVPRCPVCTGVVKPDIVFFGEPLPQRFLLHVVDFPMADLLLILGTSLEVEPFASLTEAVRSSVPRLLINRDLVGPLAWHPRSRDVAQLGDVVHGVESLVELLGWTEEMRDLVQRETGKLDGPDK
Histone deacetylase 2, sequence (Q92769 whole entry): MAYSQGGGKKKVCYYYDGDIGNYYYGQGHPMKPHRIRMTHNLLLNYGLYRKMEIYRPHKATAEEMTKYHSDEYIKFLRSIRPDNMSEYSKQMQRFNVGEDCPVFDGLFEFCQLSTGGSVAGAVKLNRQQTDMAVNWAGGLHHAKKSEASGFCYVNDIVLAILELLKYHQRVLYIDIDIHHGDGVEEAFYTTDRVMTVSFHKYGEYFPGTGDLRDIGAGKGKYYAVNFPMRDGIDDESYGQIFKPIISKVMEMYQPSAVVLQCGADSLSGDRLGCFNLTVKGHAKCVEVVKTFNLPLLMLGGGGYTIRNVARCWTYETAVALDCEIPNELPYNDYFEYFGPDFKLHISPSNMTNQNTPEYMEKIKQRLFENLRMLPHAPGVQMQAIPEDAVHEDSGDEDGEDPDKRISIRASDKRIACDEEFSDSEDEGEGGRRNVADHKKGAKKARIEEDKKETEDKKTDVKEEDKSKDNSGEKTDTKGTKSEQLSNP
Histone deacetylase 8, sequence (Q9BY41 whole entry): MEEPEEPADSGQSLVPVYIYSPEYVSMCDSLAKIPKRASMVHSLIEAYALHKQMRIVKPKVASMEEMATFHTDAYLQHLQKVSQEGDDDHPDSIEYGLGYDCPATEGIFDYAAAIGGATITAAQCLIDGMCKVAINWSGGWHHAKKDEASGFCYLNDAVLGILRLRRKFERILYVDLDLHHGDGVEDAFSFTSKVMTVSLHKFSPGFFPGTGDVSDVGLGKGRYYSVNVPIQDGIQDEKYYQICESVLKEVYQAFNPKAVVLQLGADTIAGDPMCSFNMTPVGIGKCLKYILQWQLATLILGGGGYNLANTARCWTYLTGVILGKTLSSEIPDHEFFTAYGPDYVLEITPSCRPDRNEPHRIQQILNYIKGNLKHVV
Histone deacetylase 7, sequence (Q8WUI4 whole entry): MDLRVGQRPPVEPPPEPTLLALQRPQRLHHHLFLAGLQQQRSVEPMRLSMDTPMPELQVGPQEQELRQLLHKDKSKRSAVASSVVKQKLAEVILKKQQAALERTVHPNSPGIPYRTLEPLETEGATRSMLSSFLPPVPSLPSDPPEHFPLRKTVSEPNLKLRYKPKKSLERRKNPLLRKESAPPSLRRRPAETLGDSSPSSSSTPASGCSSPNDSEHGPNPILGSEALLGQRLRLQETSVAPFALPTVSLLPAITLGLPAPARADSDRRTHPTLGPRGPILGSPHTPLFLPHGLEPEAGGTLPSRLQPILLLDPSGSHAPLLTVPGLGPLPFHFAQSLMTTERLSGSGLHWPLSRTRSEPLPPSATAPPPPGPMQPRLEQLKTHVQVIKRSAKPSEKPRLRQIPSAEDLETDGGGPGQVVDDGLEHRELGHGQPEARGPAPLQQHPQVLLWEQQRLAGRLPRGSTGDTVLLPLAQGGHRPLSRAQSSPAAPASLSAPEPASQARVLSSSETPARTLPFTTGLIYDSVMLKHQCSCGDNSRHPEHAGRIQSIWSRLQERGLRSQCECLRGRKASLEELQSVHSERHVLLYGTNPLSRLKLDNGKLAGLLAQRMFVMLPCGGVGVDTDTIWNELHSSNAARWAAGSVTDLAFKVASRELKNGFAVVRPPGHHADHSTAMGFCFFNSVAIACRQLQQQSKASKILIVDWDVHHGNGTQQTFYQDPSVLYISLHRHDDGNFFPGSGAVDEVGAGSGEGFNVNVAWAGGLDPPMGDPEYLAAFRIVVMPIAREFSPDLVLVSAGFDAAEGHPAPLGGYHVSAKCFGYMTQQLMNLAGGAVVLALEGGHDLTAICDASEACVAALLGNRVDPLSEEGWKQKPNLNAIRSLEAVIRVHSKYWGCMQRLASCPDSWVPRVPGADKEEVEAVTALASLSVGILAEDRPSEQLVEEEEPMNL
Histone deacetylase 5, sequence (Q9UQL6 whole entry): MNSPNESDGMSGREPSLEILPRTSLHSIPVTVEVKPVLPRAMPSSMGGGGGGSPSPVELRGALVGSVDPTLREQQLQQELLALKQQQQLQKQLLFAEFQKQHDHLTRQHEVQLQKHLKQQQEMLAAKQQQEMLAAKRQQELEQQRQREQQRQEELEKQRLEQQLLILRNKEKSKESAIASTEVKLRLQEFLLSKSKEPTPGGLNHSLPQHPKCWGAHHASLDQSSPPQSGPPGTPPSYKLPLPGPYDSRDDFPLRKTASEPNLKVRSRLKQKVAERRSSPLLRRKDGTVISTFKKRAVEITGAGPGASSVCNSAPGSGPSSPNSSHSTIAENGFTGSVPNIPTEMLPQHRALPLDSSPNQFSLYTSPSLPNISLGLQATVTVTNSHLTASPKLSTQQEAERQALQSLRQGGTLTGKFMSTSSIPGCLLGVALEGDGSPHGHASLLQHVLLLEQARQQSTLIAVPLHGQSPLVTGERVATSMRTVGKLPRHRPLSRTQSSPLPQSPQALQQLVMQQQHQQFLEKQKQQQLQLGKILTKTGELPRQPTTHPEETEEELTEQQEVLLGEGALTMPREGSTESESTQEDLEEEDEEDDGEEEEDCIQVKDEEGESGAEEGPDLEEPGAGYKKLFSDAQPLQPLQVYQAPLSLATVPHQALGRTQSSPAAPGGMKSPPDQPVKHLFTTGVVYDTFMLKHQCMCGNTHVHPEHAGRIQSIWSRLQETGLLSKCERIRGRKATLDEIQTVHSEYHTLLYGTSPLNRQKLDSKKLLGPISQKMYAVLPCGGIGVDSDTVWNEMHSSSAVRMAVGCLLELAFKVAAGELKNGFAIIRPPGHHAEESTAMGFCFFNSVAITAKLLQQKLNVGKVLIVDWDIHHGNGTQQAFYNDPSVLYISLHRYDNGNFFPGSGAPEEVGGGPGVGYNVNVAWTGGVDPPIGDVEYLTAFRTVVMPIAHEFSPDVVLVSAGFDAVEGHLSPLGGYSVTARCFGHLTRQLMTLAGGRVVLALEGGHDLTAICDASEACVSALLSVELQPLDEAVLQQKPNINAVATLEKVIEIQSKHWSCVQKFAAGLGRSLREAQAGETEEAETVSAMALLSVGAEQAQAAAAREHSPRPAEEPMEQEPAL

Structure (SMILES): CC(C)Cc1sc(-c2nccs2)nc1C(=O)Nc1ccc(/C=C/C(=O)NO)cc1
IC50 (Histone deacetylase 1): 0.66 µM

Structure (SMILES): C[C@H](NC(=O)c1nc(-c2ncc(-c3ccccc3)s2)sc1C1CC1)c1ccc(C(=O)NO)cc1
Drug uptake [1]: Active
Kp (in vivo [2]): 14.7
Kp (in vivo [3]): 8.66
Drug metabolism [4]: Metabolite_Notdetected
AUC [5]: 105642 ng·h/g
Drug metabolism [6]: Metabolite_Detected
IC50 (NCI-H1975): 0.0664 µM
AUC(0-inf) (in vivo [7]): 944 ng·h/mL
Drug metabolism [8]: Metabolite_Detected
Drug metabolism [9]: Metabolite_Notdetected
IC50 (HT-29 [10]): 0.166 µM
Drug metabolism [11]: Metabolite_Detected
IC50 (Histone deacetylase 8): 0.0168 µM
IC50 (Histone deacetylase 11): 0.0778 µM
Kp (in vivo [12]): 7.84
IC50 [13]: > 20 µM
Drug uptake [14]: Active
AUC [15]: 1964 ng·h/g
Drug uptake [16]: Active
Kp (in vivo [17]): 10.2
Drug metabolism [18]: Metabolite_Detected
Kp (in vivo [19]): 5.74
Drug uptake [20]: Active
IC50 (Histone deacetylase 2): 0.0133 µM
MRT (in vivo [21]): 5.22 h
Drug uptake [22]: Active
IC50 (Bel-7402): 0.0808 µM
Drug uptake [23]: Active
AUC [24]: 6079 ng·h/g
AUC [25]: 3438 ng·h/g
AUC(0-t) (in vivo [26]): 1080 ng·h/mL
Drug uptake [27]: Active
IC50 (Histone deacetylase 7): > 20 µM
IC50 (MCF7): 0.0585 µM
MRT (in vivo [28]): 10.4 h
IC50 (Histone deacetylase 4): > 20 µM
Drug metabolism [29]: Metabolite_Notdetected
Drug uptake [30]: Active
Drug uptake [31]: Active
Drug metabolism [32]: Metabolite_Detected
T/C (HT-29 [33]): 59.72%
Kp (in vivo [34]): 176
Kp (in vivo [35]): 4.38
AUC [36]: 2622 ng·h/g
AUC [37]: 4692 ng·h/g
AUC [38]: 1472 ng·h/g
IC50 (Histone deacetylase 5): 16.7 µM
Drug metabolism [39]: Metabolite_Detected
Drug metabolism [40]: Metabolite_Notdetected
Drug metabolism [41]: Metabolite_Detected
Drug metabolism [42]: Metabolite_Detected
IC50 (NCI-N87): 0.0283 µM
Drug uptake [43]: Active
IC50 (MDA-MB-231): 0.0766 µM
AUC [44]: 5185 ng·h/g
IC50 [45]: > 20 µM
Drug metabolism [46]: Metabolite_Notdetected
T/C (HT-29 [47]): 60.58%
AUC [48]: 8795 ng·h/g
Drug metabolism [49]: Metabolite_Notdetected
Drug uptake [50]: Active
IC50 [51]: 0.00198 µM
Tmax at 24 h (in vivo [52]): 0.67 h
Drug metabolism [53]: Metabolite_Detected
IC50 (Histone deacetylase 9): > 20 µM
half-life at 24 h (in vivo [54]): 4.23 h
Drug metabolism [55]: Metabolite_Detected
Cmax (in vivo [56]): 138 ng/mL
Drug metabolism [57]: Metabolite_Detected
half-life (in vivo [58]): 8.67 h
Kp (in vivo [59]): 1.17
Drug metabolism [60]: Metabolite_Detected
Drug metabolism [61]: Metabolite_Detected
Drug metabolism [62]: Metabolite_Detected
Drug uptake [63]: Active
Drug uptake [64]: Active
bioavailability (in vivo [65]): 34 to 34.4%
Drug metabolism [66]: Metabolite_Detected
AUC(0-t) (in vivo [67]): 924 ng·h/mL
Drug metabolism [68]: Metabolite_Detected
Drug metabolism [69]: Metabolite_Notdetected
IC50 [70]: > 20 µM
T/C (HT-29 [71]): 37.56%
Drug metabolism [72]: Metabolite_Detected
Drug metabolism [73]: Metabolite_Detected
IC50 (EBC-1): 0.11 µM
Drug uptake [74]: Active
Drug metabolism [75]: Metabolite_Detected
Kp (in vivo [76]): 2.46
Drug metabolism [77]: Metabolite_Notdetected
IC50 (T47D): 0.0408 µM
AUC(0-inf) (in vivo [78]): 1250 ng·h/mL
Drug metabolism [79]: Metabolite_Detected
AUC [80]: 698 ng·h/g
Kp (in vivo [81]): 3.28
AUC [82]: 599 ng·h/g
Drug metabolism [83]: Metabolite_Notdetected
Drug metabolism [84]: Metabolite_Notdetected

Structure (SMILES): Cc1[nH]c2ccccc2c1CCNCc1ccc(/C=C/C(=O)NO)cc1 [PANOBINOSTAT]
IC50 [13]: > 20 µM
IC50 (MCF7): 0.009 µM
T/C (HT-29 [33]): 93.85%
IC50 [45]: > 20 µM
IC50 [70]: > 20 µM

More lines, now with the values ahead:

IC50 (Histone deacetylase 1): 0.163 µM
Structure (SMILES): CC(C)(NC(=O)c1nc(-c2nccs2)sc1C1CC1)c1ccc(C(=O)NO)cc1

IC50 (Histone deacetylase 1): 0.0223 µM
Structure (SMILES): O=C(NO)c1ccc(C2(NC(=O)c3nc(-c4nccs4)sc3C3CC3)CC2)cc1
